What was measured:
[1] = target: WRN (BV08), human Werner helicase (Uniprot Q14191, amino acids 517-1235 with L1074F point mutation) (Homo sapiens (Human), UniProt Q14191, L1074F); assay: WRN (BV08) ADP-Glo assay; format: biochemical; settings: class symbols A-E, read-out: ADP-Glo_hWRN_IC50
[2] = test system: p21 induction in HCT116 cells; assay: p21 induction in HCT116 cells; format: cell-based; settings: Homo sapiens, HCT-116, 24 h, HCT116 cells, 24 h compound incubation; read-out: P21_EC50
Procedure, shortened: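 HCT116 cells, 2,000/well, treated 24 h at 37 °C with 11-point compound dilutions in duplicate. Fixed, then immunostained for p21 and GAPDH and read by near-IR imaging at 800/700 nm. Normalized to DMSO (low) and reference WRN inhibitor (high) controls; EC50 from non-linear regression.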

WRN (BV08), human Werner helicase (Uniprot Q14191, amino acids 517-1235 with L1074F point mutation), sequence (Q14191 other isoform, or with tags, fused parts or gaps L1074F (already in the parent)): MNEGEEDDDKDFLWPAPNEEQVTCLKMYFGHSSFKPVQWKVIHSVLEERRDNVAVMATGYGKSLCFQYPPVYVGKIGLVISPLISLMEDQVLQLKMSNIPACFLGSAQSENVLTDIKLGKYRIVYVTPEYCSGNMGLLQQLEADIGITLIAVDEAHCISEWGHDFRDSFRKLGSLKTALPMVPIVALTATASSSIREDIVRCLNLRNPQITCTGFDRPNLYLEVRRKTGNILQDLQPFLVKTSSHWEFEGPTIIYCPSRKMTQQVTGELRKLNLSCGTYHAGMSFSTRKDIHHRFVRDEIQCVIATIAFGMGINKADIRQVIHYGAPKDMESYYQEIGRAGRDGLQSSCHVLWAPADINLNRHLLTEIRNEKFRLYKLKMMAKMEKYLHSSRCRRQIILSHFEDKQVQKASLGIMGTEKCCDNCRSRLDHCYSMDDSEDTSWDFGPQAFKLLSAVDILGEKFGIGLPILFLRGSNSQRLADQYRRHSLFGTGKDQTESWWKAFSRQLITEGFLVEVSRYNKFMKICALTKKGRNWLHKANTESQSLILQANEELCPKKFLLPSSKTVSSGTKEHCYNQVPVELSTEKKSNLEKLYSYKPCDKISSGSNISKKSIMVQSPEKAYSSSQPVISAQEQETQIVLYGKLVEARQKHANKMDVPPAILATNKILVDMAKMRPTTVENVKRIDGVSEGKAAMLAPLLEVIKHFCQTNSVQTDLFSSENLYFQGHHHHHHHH

| Structure (SMILES) | IC50 [1] | EC50 [2] |
| --- | --- | --- |
| CCc1c(N2CCN(C(=O)c3ncnc(C)c3O)CC2)c(=O)c2nc(N(C)C3CC(C)(O)C3)cnc2n1CC(=O)Nc1ccc(C(F)(F)F)cc1Cl (stereo not drawn) [I-59, N-(2-chloro-4-(trifluoromethyl)phenyl)-2-(6-ethyl-2-((3-hydroxy-3-methylcyclobutyl)(methyl)amino)-7-(4-(5-hydroxy-6-methylpyrimidine-4-carbonyl)piperazin-1-yl)-8-oxopyrido[2,3-b]pyrazin-5(8H)-yl)acetamide] | 5 to 50 nM | 2 to 5 µM |
| CCc1c(N2CCN(C(=O)c3ncnc(C)c3O)CC2)c(=O)c2nc(N(C)C3CC(OC)C3)cnc2n1CC(=O)Nc1ccc(C(F)(F)F)cc1Cl (stereo not drawn) [I-60, N-(2-chloro-4-(trifluoromethyl)phenyl)-2-(6-ethyl-7-(4-(5-hydroxy-6-methylpyrimidine-4-carbonyl)piperazin-1-yl)-2-((3-methoxycyclobutyl)(methyl)amino)-8-oxopyrido[2,3-b]pyrazin-5(8H)-yl)acetamide] | 5 to 50 nM | 0.5 to 2 µM |
| CCc1c(N2CCN(C(=O)c3ncnc(C)c3O)CC2)c(=O)c2nc3cc(C)sc3nc2n1CC(=O)Nc1ccc(C(F)(F)F)cc1Cl [I-61, N-(2-chloro-4-(trifluoromethyl)phenyl)-2-(7-ethyl-6-(4-(5-hydroxy-6-methylpyrimidine-4-carbonyl)piperazin-1-yl)-2-methyl-5-oxopyrido[2,3-b]thieno[3,2-e]pyrazin-8(5H)-yl)acetamide] | 5 to 50 nM | < 0.5 µM |
| CCc1c(N2CCN(C(=O)c3c(F)cnc(OC)c3O)CC2)c(=O)c2ncc(C)nc2n1CC(=O)Nc1ccc(C(F)(F)F)cc1Cl [I-62, N-(2-chloro-4-(trifluoromethyl)phenyl)-2-(6-ethyl-7-(4-(5-fluoro-3-hydroxy-2-methoxyisonicotinoyl)piperazin-1-yl)-3-methyl-8-oxopyrido[2,3-b]pyrazin-5(8H)-yl)acetamide] | 5 to 50 nM | > 5 µM |
| CCc1c(N2CCN(C(=O)c3ncnc(C)c3O)CC2)c(=O)c2nc(-c3cnn(C)c3)c(C)nc2n1CC(=O)Nc1ccc(C(F)(F)F)cc1Cl [I-63, N-(2-chloro-4-(trifluoromethyl)phenyl)-2-(6-ethyl-7-(4-(5-hydroxy-6-methylpyrimidine-4-carbonyl)piperazin-1-yl)-3-methyl-2-(1-methyl-1H-pyrazol-4-yl)-8-oxopyrido[2,3-b]pyrazin-5(8H)-yl)acetamide] | 5 to 50 nM | > 5 µM |
| CCc1c(N2CCN(C(=O)c3ncnc(C)c3O)CC2)c(=O)c2nc(-c3ccnc(OC)c3)c(C)nc2n1CC(=O)Nc1ccc(C(F)(F)F)cc1Cl [I-65, N-(2-chloro-4-(trifluoromethyl)phenyl)-2-(6-ethyl-7-(4-(5-hydroxy-6-methylpyrimidine-4-carbonyl)piperazin-1-yl)-2-(2-methoxypyridin-4-yl)-3-methyl-8-oxopyrido[2,3-b]pyrazin-5(8H)-yl)acetamide] | 5 to 50 nM | > 5 µM |
| CCc1c(N2CCN(C(=O)c3c(O)cccc3O)CC2)c(=O)c2ncc(C)nc2n1CC(=O)Nc1ccc(C(F)(F)F)cc1Cl [I-67, N-(2-chloro-4-(trifluoromethyl)phenyl)-2-(7-(4-(2,6-dihydroxybenzoyl)piperazin-1-yl)-6-ethyl-3-methyl-8-oxopyrido[2,3-b]pyrazin-5(8H)-yl)acetamide] | 5 to 50 nM | > 5 µM |
| CCc1c(N2CCN(C(=O)c3ncc4c(c3O)OCC4)CC2)c(=O)c2ncc(C)nc2n1CC(=O)Nc1ccc(C(F)(F)F)cc1Cl [I-68, N-(2-chloro-4-(trifluoromethyl)phenyl)-2-(6-ethyl-7-(4-(7-hydroxy-2,3-dihydrofuro[3,2-c]pyridine-6-carbonyl)piperazin-1-yl)-3-methyl-8-oxopyrido[2,3-b]pyrazin-5(8H)-yl)acetamide] | 5 to 50 nM | > 5 µM |
| CCc1c(N2CCN(C(=O)c3ncc4c(c3O)CCO4)CC2)c(=O)c2ncc(C)nc2n1CC(=O)Nc1ccc(C(F)(F)F)cc1Cl [I-69, N-(2-chloro-4-(trifluoromethyl)phenyl)-2-(6-ethyl-7-(4-(4-hydroxy-2,3-dihydrofuro[2,3-c]pyridine-5-carbonyl)piperazin-1-yl)-3-methyl-8-oxopyrido[2,3-b]pyrazin-5(8H)-yl)acetamide] | 5 to 50 nM | > 5 µM |
| CCc1c(N2CCN(C(=O)c3cccc4oc(=O)[nH]c34)CC2)c(=O)c2ncc(C)nc2n1CC(=O)Nc1ccc(C(F)(F)F)cc1Cl [I-70, N-(2-chloro-4-(trifluoromethyl)phenyl)-2-(6-ethyl-3-methyl-8-oxo-7-(4-(2-oxo-2,3-dihydrobenzo[d]oxazole-4-carbonyl)piperazin-1-yl)pyrido[2,3-b]pyrazin-5(8H)-yl)acetamide] | 5 to 50 nM | > 5 µM |
| CCc1c(N2CCN(C(=O)c3c(O)ccc4nc[nH]c34)CC2)c(=O)c2ncc(C)nc2n1CC(=O)Nc1ccc(C(F)(F)F)cc1Cl [I-71, N-(2-chloro-4-(trifluoromethyl)phenyl)-2-(6-ethyl-7-(4-(6-hydroxy-1H-benzo[d]imidazole-7-carbonyl)piperazin-1-yl)-3-methyl-8-oxopyrido[2,3-b]pyrazin-5(8H)-yl)acetamide] | 5 to 50 nM | > 5 µM |
| CCc1c(N2CCN(C(=O)c3ncnc(C)c3O)CC2)c(=O)c2nc(N(C)CCOC)cnc2n1CC(=O)Nc1ccc(C(F)(F)F)cc1Cl [I-72, N-(2-chloro-4-(trifluoromethyl)phenyl)-2-(6-ethyl-7-(4-(5-hydroxy-6-methylpyrimidine-4-carbonyl)piperazin-1-yl)-2-((2-methoxyethyl)(methyl)amino)-8-oxopyrido[2,3-b]pyrazin-5(8H)-yl)acetamide] | 5 to 50 nM | > 5 µM |
| CCc1c(N2CCN(C(=O)c3c(O)ccc4[nH]ncc34)CC2)c(=O)c2ncc(C)nc2n1CC(=O)Nc1ccc(C(F)(F)F)cc1Cl [I-76, N-(2-chloro-4-(trifluoromethyl)phenyl)-2-(6-ethyl-7-(4-(5-hydroxy-1H-indazole-4-carbonyl)piperazin-1-yl)-3-methyl-8-oxopyrido[2,3-b]pyrazin-5(8H)-yl)acetamide] | 5 to 50 nM | > 5 µM |
| CCc1c(N2CCN(C(=O)c3nocc3O)CC2)c(=O)c2ncc(C)nc2n1CC(=O)Nc1ccc(C(F)(F)F)cc1Cl [I-77, N-(2-chloro-4-(trifluoromethyl)phenyl)-2-(6-ethyl-7-(4-(4-hydroxyisoxazole-3-carbonyl)piperazin-1-yl)-3-methyl-8-oxopyrido[2,3-b]pyrazin-5(8H)-yl)acetamide] | 5 to 50 nM | > 5 µM |

Next, values leading:

| IC50 [1] | EC50 [2] | Structure (SMILES) |
| --- | --- | --- |
| 5 to 50 nM | 0.5 to 2 µM | CCc1c(N2CCN(C(=O)c3ncnc(C)c3O)CC2)c(=O)c2nc(C)c(C)nc2n1CC(=O)Nc1ccc(C(F)(F)F)cc1Cl [I-64, N-(2-chloro-4-(trifluoromethyl)phenyl)-2-(6-ethyl-7-(4-(5-hydroxy-6-methylpyrimidine-4-carbonyl)piperazin-1-yl)-2,3-dimethyl-8-oxopyrido[2,3-b]pyrazin-5(8H)-yl)acetamide] |
| 5 to 50 nM | 2 to 5 µM | CCc1c(N2CCN(C(=O)c3ncnc(C)c3O)CC2)c(=O)c2nc(N3CC(OC)C3)cnc2n1CC(=O)Nc1ccc(C(F)(F)F)cc1Cl [I-66, N-(2-chloro-4-(trifluoromethyl)phenyl)-2-(6-ethyl-7-(4-(5-hydroxy-6-methylpyrimidine-4-carbonyl)piperazin-1-yl)-2-(3-methoxyazetidin-1-yl)-8-oxopyrido[2,3-b]pyrazin-5(8H)-yl)acetamide] |
| 5 to 50 nM | > 5 µM | CCc1c(N2CCN(C(=O)c3ncnc(C)c3O)CC2)c(=O)c2nc(N(C)CCO)cnc2n1CC(=O)Nc1ccc(C(F)(F)F)cc1Cl [I-73, N-(2-chloro-4-(trifluoromethyl)phenyl)-2-(6-ethyl-7-(4-(5-hydroxy-6-methylpyrimidine-4-carbonyl)piperazin-1-yl)-2-((2-hydroxyethyl)(methyl)amino)-8-oxopyrido[2,3-b]pyrazin-5(8H)-yl)acetamide] |
| 5 to 50 nM | 0.5 to 2 µM | CCc1c(N2CCN(C(=O)c3ncnc(C)c3O)CC2)c(=O)c2nc(N(C)CC)cnc2n1CC(=O)Nc1ccc(C(F)(F)F)cc1Cl [I-74, N-(2-chloro-4-(trifluoromethyl)phenyl)-2-(6-ethyl-2-(ethyl(methyl)amino)-7-(4-(5-hydroxy-6-methylpyrimidine-4-carbonyl)piperazin-1-yl)-8-oxopyrido[2,3-b]pyrazin-5(8H)-yl)acetamide] |
| 5 to 50 nM | 0.5 to 2 µM | CCc1c(N2CCN(C(=O)c3ncnc(C)c3O)CC2)c(=O)c2nc(N3CCCC3)cnc2n1CC(=O)Nc1ccc(C(F)(F)F)cc1Cl [I-75, N-(2-chloro-4-(trifluoromethyl)phenyl)-2-(6-ethyl-7-(4-(5-hydroxy-6-methylpyrimidine-4-carbonyl)piperazin-1-yl)-8-oxo-2-(pyrrolidin-1-yl)pyrido[2,3-b]pyrazin-5(8H)-yl)acetamide] |
| 5 to 50 nM | > 5 µM | CCc1c(N2CCN(C(=O)c3ncnc(C)c3O)CC2)c(=O)c2nc(-c3cnn(C)c3)cnc2n1CC(=O)Nc1ccc(C(F)(F)F)cc1Cl [I-79, N-(2-chloro-4-(trifluoromethyl)phenyl)-2-(6-ethyl-7-(4-(5-hydroxy-6-methylpyrimidine-4-carbonyl)piperazin-1-yl)-2-(1-methyl-1H-pyrazol-4-yl)-8-oxopyrido[2,3-b]pyrazin-5(8H)-yl)acetamide] |
| 5 to 50 nM | > 5 µM | CCc1c(N2CCN(C(=O)c3ncnc(C)c3O)CC2)c(=O)c2nc(C)cnc2n1CC(=O)Nc1ccc(C(F)(F)F)cc1Cl [I-80, N-(2-chloro-4-(trifluoromethyl)phenyl)-2-(6-ethyl-7-(4-(5-hydroxy-6-methylpyrimidine-4-carbonyl)piperazin-1-yl)-2-methyl-8-oxopyrido[2,3-b]pyrazin-5(8H)-yl)acetamide] |

— patent US20250034136A1 (Nimbus Wadjet, Inc., priority 2023, published 2025)
